In EP2646421B1, “7-NITRO-5-PHENYL-1-(PYRROLIDIN-1-YLMETHYL)-1H-BENZO[E][1,4]DIAZEPIN-2(3H)-ONE AND OTHER BENZODIAZEPINE DERIVATIVES” (Pignataro, Giuseppe, priority 2010, dated 2012):

Molecular target: T1, NCX2 (Rattus norvegicus, UniProt P48768)
T1 construct: expressed in transfected cells
Test: Fura-2 AM single-cell microfluorimetry, BHK-NCX2 cells
Assay type: cell-based
Details: 10 nM (Fig. 2)
Procedure: The activity of NCX was established by means of three different subclones of baby hamsted kidney (BHK) cells that were stably transfected with one of each NCX isoforms, named BHK-NCX1, BHK-NCX2 and BHK-NCX3. These cell lines were grown on plastic dishes in a mix of DMEM and Ham's F12 media (1:1) (Gibco, Invitrogen, MI, Italy) supplemented with 5% fetal bovine serum, 100 U/ml penicillin, and 100 µg/ml streptomycin (Sigma, St. Louis, Missouri, USA). Cells were cultured in a humidified 5% CO2 atmosphere and at the temperature of 37°C.
NCX activity has been measured considering the variation of intracellular concentrations of Ca^2+ ions ([Ca^2+]i) due to its activation by means of single-cell microfluorimetry. […] In both cases, this probe will produce an emission at 510 nm; the ratio between the two emission relative to 340 and 380 excitation allow to quantify [Ca^2+]i in the time considering the calibration curve previously performed. […]
Briefly, BHK cells wild type and/or BHK trasnsfected with NCX mutants, grown on glass coverslips, were loaded with Fura-2 acetoxymethyl ester (Fura-2AM) (10 µM) for 30 minutes at 37°C in normal Krebs solution containing the following (in mM): 5.5 KCI, 160 NaCl, 1.2 MgCl2, 1.5 CaCl2, 10 glucose, and 10 Hepes-NaOH, pH 7.4. […] Fura-2 fluorescence intensity was measured every 3 seconds. […]

T1 sequence (P48768 21-921): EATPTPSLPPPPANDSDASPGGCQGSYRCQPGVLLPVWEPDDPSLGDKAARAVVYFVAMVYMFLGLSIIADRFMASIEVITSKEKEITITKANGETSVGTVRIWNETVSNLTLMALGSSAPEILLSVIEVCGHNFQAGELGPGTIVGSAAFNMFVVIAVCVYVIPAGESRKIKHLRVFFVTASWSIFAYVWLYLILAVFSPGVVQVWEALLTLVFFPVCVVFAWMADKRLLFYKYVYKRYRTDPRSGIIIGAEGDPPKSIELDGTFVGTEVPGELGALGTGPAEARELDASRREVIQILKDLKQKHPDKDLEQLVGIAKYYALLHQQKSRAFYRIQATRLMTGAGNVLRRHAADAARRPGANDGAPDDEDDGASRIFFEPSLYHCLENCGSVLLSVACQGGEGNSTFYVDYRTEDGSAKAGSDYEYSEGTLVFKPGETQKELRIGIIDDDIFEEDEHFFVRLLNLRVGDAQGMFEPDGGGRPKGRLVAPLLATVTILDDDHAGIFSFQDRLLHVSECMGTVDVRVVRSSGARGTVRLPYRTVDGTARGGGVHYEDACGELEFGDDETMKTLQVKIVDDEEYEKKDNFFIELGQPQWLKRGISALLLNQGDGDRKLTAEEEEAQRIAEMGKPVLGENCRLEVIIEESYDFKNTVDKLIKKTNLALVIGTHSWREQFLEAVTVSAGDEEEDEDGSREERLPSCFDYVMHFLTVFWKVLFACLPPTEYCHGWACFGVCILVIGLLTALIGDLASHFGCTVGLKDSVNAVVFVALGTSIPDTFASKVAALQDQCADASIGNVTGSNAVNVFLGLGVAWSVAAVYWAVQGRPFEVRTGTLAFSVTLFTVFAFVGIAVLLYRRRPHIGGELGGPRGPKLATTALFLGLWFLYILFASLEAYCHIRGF

Q: For `O=C1CN=C(c2ccccc2)c2cc([N+](=O)[O-])ccc2N1CN1CCCC1` [neurounina-1, 7-nitro-5-phenyl-1-(pyrrolidin-1-ylmethyl)-1H-benzo[e][1,4]diazepin-2(3H)-one], which “increased reverse mode activity of NCX2” value is on record?
A: 40%
